Experimental findings from patent publication US20020013478A1, “Calanolide analogues and methods of their use” (Sarawak Medichem Pharmaceuticals,Inc., priority 1994, published 2002) are described below.

Assay [1] relates to African green monkey kidney (BSC-1) cells. The experiment in a line: Cytotoxicity run with the measles assay.
Excerpt: Virus strain: CC (Source: Pennsylvania State University) Cell line: African green monkey kidney (BSC-1) cells.
For assay [2], the system named is HCMV isolates Towne, AD169, E. Mann, Coffman, C9208. The experiment in a line: Anti-CMV plaque reduction assay against various laboratory and clinical isolates (Example 40). It counts as cell-based, human cytomegalovirus. (In general: Plaques are areas of infected cells; plaque reduction assays count them against a control.)
Assay [3] deals with human foreskin fibroblast cells. The experiment in a line: Toxicity run with the HCMV assay, human foreskin fibroblast cells. Type of assay: cell-based. The following applies: Table II. An outline of the steps: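 Human foreskin fibroblasts exposed to drug at 37 °C in CO2, either 72 h followed by Coulter Counter counts (triplicate counts, three replicate wells), or seven days followed by dye staining for 1 h and optical density at 550 nm.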

The test system of assay [4] is HIV-1.
The subject of another assay is Raji or Daudi cells. The experiment in a line: Toxicity run with the EBV assay. Type of assay: cell-based, human. The following applies: Table II. The source says: IC50 (50% inhibitory concentration) is the concentration required to inhibit cell proliferation by 50%
For assay [5], the system named is HIV-1. Kind of assay: microbe, parasite or virus in culture. The following applies: Human immunodeficiency virus 1, CEM-SS.

pEC50, pIC50: −log10 of the molar value. Values after ≈ are worked out from the molar mass of the structure shown. Like-named read-outs stand apart in the source and are kept apart here.

Usually pIC50 stands for −log10 of the IC50, conventionally taken in molar units. The pEC50 is the negative decadic logarithm of the EC50, by convention in mol/L. With `CCCc1cc(=O)oc2c3c(c4c(c12)OC(C)(C)C=C4)OC(C)C(C)C3=O` (racemic) [(±)-7a], the pIC50 in assay [1] (read-out: Others IC50, against measles, Table II footnote g) is 3.48. Besides, the pEC50 in assay [2] (isolate AD169) was 5.50; in assay [2] (isolate C9208), 5.59; in assay [2] (isolate Coffman), 5.50; in assay [2] (isolate E. Mann) it was 5.50; in assay [2] (isolate Towne) it was 5.51; in the assay on HIV-1 [4] (CEM-SS MTT assay), 5.55. In addition, the “HCMV IC50” value in assay [3] came out at 19.8 µg/mL. In addition, the “Maximum Protection (%)” value with HIV-1 [4] (CEM-SS MTT assay) was determined as 55%. Besides, the “EBV IC50” value with Raji or Daudi cells was greater than 50 µg/mL.
The term IC50 denotes the concentration needed to halve the response being measured. As for `CCCc1cc(=O)oc2c3c(c4c(c12)OC(C)(C)C=C4)O[C@H](C)[C@@H](C)C3=O` [(+)-7, 10(R),11(R)-trans-Dihydro6,6,10,11-tetramethyl-4-propyl-2H,6H,12H-benzo [1,2-b:3,4-b′:5,6-b″]tripyran-2,12-dione], the pIC50 in assay [1] (Chlorocebus sabaeus, BSC-1, read-out: Others IC50, against measles) was 5.00. Moreover, the pEC50 in assay [2] (Human betaherpesvirus 5, AD169, isolate AD169) was 5.50; in assay [2] (Human betaherpesvirus 5, AD169, isolate C9208), 5.31; in assay [2] (Human betaherpesvirus 5, AD169, isolate Coffman) it was 5.32; in assay [2] (Human betaherpesvirus 5, AD169, isolate E. Mann), 5.33; in assay [2] (Human betaherpesvirus 5, AD169, isolate Towne), 5.30; in the assay with HIV-1 [5] it was 6.17. In addition, the concentration for half-maximal inhibition (IC50) is 47.9 µg/mL (≈ 130 µM) in assay [3] (Homo sapiens, Fibroblast) and greater than 50 µg/mL with Raji or Daudi cells (Homo sapiens). In addition, the “Maximum Protection (%)” value in the assay with HIV-1 [4] (CEM-SS MTT assay) worked out at 90%. In addition, in the assay on HIV-1 [4] (text summary of Table I), the “protecting cells against HIV infection” value is “highly efficacious”.
